The values below come from patent US10940155B2, “Oral quetiapine suspension formulations with extended shelf life and enhanced bioavailability” (TLC THERAPEUTICS, LLC, priority 2017, dated 2021).

The conditions of series [1]: due to extensive first-pass metabolism; cited from earlier work.

Structures can show the parent of a compound that is named as a salt. Where two headings read alike, the source gives them in different places.

As for `OCCOCCN1CCN(C2=Nc3ccccc3Sc3ccccc32)CC1` [quetiapine fumarate, 2-[2-(4-dibenzo [b,f][1,4]thiazepin-11-yl-1-piperazinyl)ethoxy]-ethanol fumarate (2:1)], the solubility reads like this: (pH 2) 1.499 g/5 ml; (pH 3) 952.1 mg/5 ml. Besides, the oral bioavailability entry in series [1] was “poor”.
